Experimental data: patent publication US9695154B2, “Heteroaryl inhibitors of sumo activating enzyme” (MILLENNIUM PHARMACEUTICALS, INC., priority 2013, dated 2017)

Target: T1, recombinant human SAE enzyme (Homo sapiens, UniProt Q9UBT2)
T1 sequence (Q9UBT2 1-640): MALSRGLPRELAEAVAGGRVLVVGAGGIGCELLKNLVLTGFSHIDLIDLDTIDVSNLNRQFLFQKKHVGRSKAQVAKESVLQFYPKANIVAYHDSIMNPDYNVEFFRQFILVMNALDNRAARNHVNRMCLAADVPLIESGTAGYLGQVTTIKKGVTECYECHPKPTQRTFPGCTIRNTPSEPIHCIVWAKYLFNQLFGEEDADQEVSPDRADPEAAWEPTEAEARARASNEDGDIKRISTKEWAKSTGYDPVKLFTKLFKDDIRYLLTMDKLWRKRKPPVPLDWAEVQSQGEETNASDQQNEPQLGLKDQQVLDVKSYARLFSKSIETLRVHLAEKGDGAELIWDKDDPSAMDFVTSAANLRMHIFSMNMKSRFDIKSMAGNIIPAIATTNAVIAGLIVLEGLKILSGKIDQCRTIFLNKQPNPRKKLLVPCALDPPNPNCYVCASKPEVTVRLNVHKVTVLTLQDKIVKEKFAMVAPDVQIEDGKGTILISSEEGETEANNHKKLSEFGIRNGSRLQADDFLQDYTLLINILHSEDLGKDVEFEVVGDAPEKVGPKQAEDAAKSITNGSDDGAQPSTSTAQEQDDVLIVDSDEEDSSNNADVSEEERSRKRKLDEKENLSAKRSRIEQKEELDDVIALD
T1 sequence (Q9UBE0 1-346 partner): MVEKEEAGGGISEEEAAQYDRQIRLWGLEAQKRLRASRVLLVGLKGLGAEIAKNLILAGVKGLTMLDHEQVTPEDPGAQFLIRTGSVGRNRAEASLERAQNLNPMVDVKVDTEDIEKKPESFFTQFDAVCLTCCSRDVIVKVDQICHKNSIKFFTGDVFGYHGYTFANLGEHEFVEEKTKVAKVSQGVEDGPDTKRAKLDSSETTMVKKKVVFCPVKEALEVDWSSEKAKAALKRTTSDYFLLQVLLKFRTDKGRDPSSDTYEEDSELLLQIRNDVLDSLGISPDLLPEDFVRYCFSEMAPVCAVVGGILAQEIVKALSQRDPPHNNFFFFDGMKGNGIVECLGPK
Assay: SAE HTRF Enzyme Assay
Format: biochemical
Conditions: for IC50: class symbols A-C; for inhibition at 0.111 µM / Percent Inhibition: compound concentration 0.111 μM; for inhibition at 0.111 µM: read-out: Percent Inhibition; for Percent Inhibition: 0.111 µM
Experimental: The SAE enzymatic reaction totals 50 μl and contains 50 mM HEPES Hemisodium (pH 7.5), 0.05% BSA, 5 mM MgCl2, 0.5 μM ATP, 250 μM GSH, 0.01 μM Ubc9-GST, 0.125 μM Sumo-Flag and 0.11 nM recombinant human SAE enzyme. The enzymatic reaction mixture with and without inhibitor, Is incubated at 24° C. for 105 min in a 384-well plate before termination with […] of Stop/Detection buffer (0.1M HEPES Hemisodium pH 7.5, 0.05% Tween20, 20 mM EDTA, 410 mM KF, 0.53 nM Europium-Cryptate labeled monoclonal anti-Flag M2 Antibody (CisBio International) and 8.125 μg/ml PHYCOLINK goat anti-GST allophycocyanin (XL-APC) antibody (Prozyme)). After incubation for 2 hours at 24° C., quantification of FRET is performed on the Pherostar™ (BMG Labtech). Percentage inhibition values at a single concentration or enzyme inhibition (IC50) values are determined from those curves. One skilled in the art will appreciate that the values generated either as percentage inhibition at a single concentration or IC50 values are subject to experimental variation.

| Compound | IC50 [µM] | inhibition at 0.111 µM [%] | Percent Inhibition [%] |
| --- | --- | --- | --- |
| C=C[S+]([O-])c1cccc(Cn2ccc(C(=O)c3cncnc3N[C@@H]3C[C@H](COS(N)(=O)=O)[C@@H](O)[C@H]3O)n2)c1 (mixture of isomers) [Compound I-74, [(1R,2R,3S,4R)-2,3-dihydroxy-4-{[5-({1-[3-((R)-vinylsulfinyl)benzyl]-1H-pyrazol-3-yl}carbonyl)pyrimidin-4-yl]amino}cyclopentyl]methyl sulfamate and [(1R,2R,3S,4R)-2,3-dihydroxy-4-{[5-({1-[3-((S)-vinylsulfinyl)benzyl]-1H-pyrazol-3-yl}carbonyl)pyrimidin-4-yl]amino}cyclopentyl]methyl sulfamate] | < 0.01 | 92 |  |
| CC1(C)CCC(Cn2ccc(C(=O)c3cncnc3N[C@@H]3C[C@H](COS(N)(=O)=O)[C@@H](O)C3)n2)O1 (mixture of isomers) [Compound I-77, [(1R,2S,4R)-4-({5-[(1-{[(2R)-5,5-dimethyltetrahydrofuran-2-yl]methyl}-1H-pyrazol-3-yl)carbonyl]pyrimidin-4-yl}amino)-2-hydroxycyclopentyl]methyl sulfamate and [(1R,2S,4R)-4-({5-[(1-{[(2S)-5,5-dimethyltetrahydrofuran-2-yl]methyl}-1H-pyrazol-3-yl)carbonyl]pyrimidin-4-yl}amino)-2-hydroxycyclopentyl]methyl sulfamate] | 0.1 to 1 | 51 |  |
| CC1(C)CCC(Cn2ccc(C(=O)c3cncnc3N[C@@H]3C[C@H](COS(N)(=O)=O)[C@@H](O)[C@@H]3F)c2)O1 (mixture of isomers) [Compound I-250, [(1R,2R,3R,4R)-4-({5-[(1-{[(2R)-5,5-dimethyltetrahydrofuran-2-yl]methyl}-1H-pyrrol-3-yl)carbonyl]pyrimidin-4-yl}amino)-3-fluoro-2-hydroxycyclopentyl]methyl sulfamate and [(1R,2R,3R,4R)-4-({5-[(1-{[(2S)-5,5-dimethyltetrahydrofuran-2-yl]methyl}-1H-pyrrol-3-yl)carbonyl]pyrimidin-4-yl}amino)-3-fluoro-2-hydroxycyclopentyl]methyl sulfamate] | 0.01 to 0.1 | 86 |  |
| NS(=O)(=O)OC[C@H]1C[C@@H](Nc2ncncc2C(=O)c2ccn(CC3CCCO3)n2)C[C@@H]1O (mixture of isomers) [Compound I-293, [(1R,2S,4R)-2-hydroxy-4-{[5-({1-[(2R)-tetrahydrofuran-2-ylmethyl]-1H-pyrazol-3-yl}carbonyl)pyrimidin-4-yl]amino}cyclopentyl]methyl sulfamate and [(1R,2S,4R)-2-hydroxy-4-{[5-({1-[(2S)-tetrahydrofuran-2-ylmethyl]-1H-pyrazol-3-yl}carbonyl)pyrimidin-4-yl]amino}cyclopentyl]methyl sulfamate] | 0.1 to 1 | 38 |  |
| NS(=O)(=O)OC[C@H]1C[C@@H](Nc2ncncc2C(=O)c2ccn(C3C=CCCC3)n2)C[C@@H]1O (mixture of isomers) [Compound I-302, [(1R,2S,4R)-4-{[5-({1-[(1R)-cyclohex-2-en-1-yl]-1H-pyrazol-3-yl}carbonyl)pyrimidin-4-yl]amino}-2-hydroxycyclopentyl]methyl sulfamate and [(1R,2S,4R)-4-{[5-({1-[(1S)-cyclohex-2-en-1-yl]-1H-pyrazol-3-yl}carbonyl)pyrimidin-4-yl]amino}-2-hydroxycyclopentyl]methyl sulfamate] | 0.1 to 1 | 34 |  |
| NS(=O)(=O)OC[C@H]1C[C@@H](Nc2ncncc2C(=O)c2ccn(CC3CCOC3)n2)C[C@@H]1O (mixture of isomers) [Compound I-332, [(1R,2S,4R)-2-hydroxy-4-{[5-({1-[(3R)-tetrahydrofuran-3-ylmethyl]-1H-pyrazol-3-yl}carbonyl)pyrimidin-4-yl]amino}cyclopentyl]methyl sulfamate and [(1R,2S,4R)-2-hydroxy-4-{[5-({1-[(3S)-tetrahydrofuran-3-ylmethyl]-1H-pyrazol-3-yl}carbonyl)pyrimidin-4-yl]amino}cyclopentyl]methyl sulfamate] | 0.1 to 1 | 16 |  |
| NS(=O)(=O)OC[C@H]1C[C@@H](Nc2ncncc2C(=O)c2ccn(CC3CC3c3ccccc3)c2)C[C@@H]1O (mixture of isomers) [Compound I-339, [(1R,2S,4R)-2-hydroxy-4-{[5-({1-[(1S,2S)-(2-phenylcyclopropyl)methyl]-1H-pyrrol-3-yl}carbonyl)pyrimidin-4-yl]amino}cyclopentyl]methyl sulfamate and [(1R,2S,4R)-2-hydroxy-4-{[5-({1-[(1R,2R)-(2-phenylcyclopropyl)methyl]-1H-pyrrol-3-yl}carbonyl)pyrimidin-4-yl]amino}cyclopentyl]methyl sulfamate] | < 0.01 | 93 |  |
| COC(C)c1cc(C(=O)c2cncnc2N[C@@H]2C[C@H](COS(N)(=O)=O)[C@@H](O)C2)nn1Cc1cccc(Br)c1 (mixture of isomers) [Compound I-369, [(1R,2S,4R)-4-{[5-({1-(3-bromobenzyl)-5-[(1S)-1-methoxyethyl]-1H-pyrazol-3-yl}carbonyl)pyrimidin 4-yl]amino)-2-hydroxycyclopentyl]methyl sulfamate and [(1R,2S,4R)-4-{[5-({1-(3-bromobenzyl)-5-[(1R)-1-methoxyethyl]-1H-pyrazol-3-yl}carbonyl)pyrimidin-4-yl]amino}-2-hydroxycyclopentyl]methyl sulfamate] | < 0.01 | 98 |  |
| NS(=O)(=O)OC[C@H]1C[C@@H](Nc2ncncc2C(=O)c2ccn(CC3CC3c3ccccc3)c2)[C@@H](F)[C@@H]1O (single isomer, unassigned) [Compound I-9, [(1R,2R,3R,4R)-3-fluoro-2-hydroxy-4-{[5-({1-[(1R,2R)-(2-phenylcyclopropyl)methyl]-1H-pyrrol-3-yl}carbonyl)pyrimidin-4-yl]amino}cyclopentyl]methyl sulfamate or [(1R,2R,3R,4R)-3-fluoro-2-hydroxy-4-{[5-({1-[(1S,2S)-(2-phenylcyclopropyl)methyl]-1H-pyrrol-3-yl}carbonyl)pyrimidin-4-yl]amino}cyclopentyl]methyl sulfamate] | 0.01 to 0.1 |  | 91 |
| C#Cc1cccc([C@@H](C)n2ccc(C(=O)c3cncnc3N[C@@H]3C[C@H](COS(N)(=O)=O)[C@@H](O)C3)n2)c1 (single isomer, unassigned) [Compound I-10] | 0.01 to 0.1 | 61 |  |
| CC(c1cccc(Br)n1)n1ccc(C(=O)c2cncnc2N[C@@H]2C[C@H](COS(N)(=O)=O)[C@@H](O)C2)n1 (single isomer, unassigned) [Compound I-65, [(1R,2S,4R)-4-{[5-({1-[(1S)-1-(6-bromopyridin-2-yl)ethyl]-1H-pyrazol-3-yl}carbonyl)pyrimidin-4-yl]amino}-2-hydroxycyclopentyl]methyl sulfamate or [(1R,2S,4R)-4-{[5-({1-[(1R)-1-(6-bromopyridin-2-yl)ethyl]-1H-pyrazol-3-yl}carbonyl)pyrimidin-4-yl]amino}-2-hydroxycyclopentyl]methyl sulfamate] | < 0.01 |  | 99 |
| CC(c1ccc(Cl)o1)n1ccc(C(=O)c2cncnc2N[C@@H]2C[C@H](COS(N)(=O)=O)[C@@H](O)C2)n1 (single isomer, unassigned) [Compound I-79, [(1R,2S,4R)-4-{[5-({1-[(1S)-1-(5-chloro-2-furyl)ethyl]-1H-pyrazol-3-yl}carbonyl)pyrimidin-4-yl]amino}-2-hydroxycyclopentyl]methyl sulfamate or [(1R,2S,4R)-4-{[5-({1-[(1R)-1-(5-chloro-2-furyl)ethyl]-1H-pyrazol-3-yl}carbonyl)pyrimidin-4-yl]amino}-2-hydroxycyclopentyl]methyl sulfamate] | < 0.01 |  | 98 |
